Experimental data taken from article PMC8780828 (Viruses, 2021).
Converted amounts (≈) assume the structure as drawn.

What was measured:
P-gp = assay: in vitro; conditions: human
CYP1A2 = CYP1A2 (Homo sapiens, UniProt P05177); assay: in vitro; conditions: microsomes, pH 7.4
[1] = tested on: pseudovirus NL4-3ΔEnv-NanoLuc/MERS-CoV; assay: microbe, parasite or virus in culture; format: cell-based; conditions: Middle East respiratory syndrome-related coronavirus, MRC5; n=3; read-out: IC50
[2] = biological target: SARS-CoV-2 spike S1 subunit protein (Severe acute respiratory syndrome coronavirus 2, UniProt P0DTC2); format: binding
in vivo = conditions: female, Sprague Dawley, rat; for MRT inf: MRT0-inf_obs; for half-life: t1/2

Sequence of CYP1A2 (P05177 whole entry): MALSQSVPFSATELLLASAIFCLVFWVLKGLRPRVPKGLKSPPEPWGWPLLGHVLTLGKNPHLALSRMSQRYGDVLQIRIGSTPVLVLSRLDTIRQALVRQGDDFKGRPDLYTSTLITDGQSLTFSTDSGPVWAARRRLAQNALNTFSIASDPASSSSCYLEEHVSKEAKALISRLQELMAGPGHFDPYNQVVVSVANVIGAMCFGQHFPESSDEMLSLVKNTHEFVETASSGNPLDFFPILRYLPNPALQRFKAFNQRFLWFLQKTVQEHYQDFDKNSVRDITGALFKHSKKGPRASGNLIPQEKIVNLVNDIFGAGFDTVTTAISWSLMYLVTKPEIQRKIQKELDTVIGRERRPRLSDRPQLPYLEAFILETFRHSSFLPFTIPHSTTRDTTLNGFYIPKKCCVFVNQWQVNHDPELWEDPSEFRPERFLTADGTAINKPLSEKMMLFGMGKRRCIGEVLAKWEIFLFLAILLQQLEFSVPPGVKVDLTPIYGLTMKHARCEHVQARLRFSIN

Molecule `O=C(O)c1cc(-c2ccc(/C=C3\SC(=S)N(CCc4ccccc4)C3=O)o2)ccc1Cl` [NBCoV1] has a Papp A→B (P-gp; Caco-2, pH 7.4, Caco-2 permeability (mean Papp) A-to-B, 5 µM) of 16.9 ×10⁻⁶ cm/s, a Papp B→A (P-gp; Caco-2, pH 7.4, Caco-2 permeability (mean Papp) B-to-A, 5 µM) of 20.4 ×10⁻⁶ cm/s and a Papp A→B (P-gp; Caco-2, pH 7.4, Papp A-to-B, single replicates (R1, R2)) of 20.4 ×10⁻⁶ cm/s. For the same molecule, the Papp B→A (P-gp; Caco-2, pH 7.4, Papp B-to-A, single replicates (R1, R2)) was 20.9 ×10⁻⁶ cm/s, the activity at 0.0137 µM (CYP1A2) was 99.2% and the activity at 0.0412 µM (CYP1A2) was 96.7%. For the same molecule, the activity at 0.123 µM (CYP1A2) was 93.8%, the activity at 0.37 µM (CYP1A2) was 92.2% and the activity at 1.11 µM (CYP1A2) was 89.8%. It also gave an activity at 3.33 µM (CYP1A2) of 69.5%, an activity at 10 µM (CYP1A2) of 41.3% and an IC50 [1] of 76.5 ± 0.3 nM. The “Caco-2 permeability (mean Papp) A-to-B” value (Caco-2 cells; 5 µM) was 20.5 ×10⁻⁶ cm/s, the “Caco-2 permeability (mean Papp) B-to-A” value (Caco-2 cells; 5 µM) was 23.6 ×10⁻⁶ cm/s and the “P-gp Substrate classification” value (Caco-2 cells; Caco-2) was “Negative”. The kd [2] was 0.0257 s⁻¹, the solubility (physchem; pH 7.4, Solubility (AVG)) was 4.72 µM (≈ 2.22 µg/mL) and the solubility (physchem; pH 7.4, Solubility, single replicates (R1, R2)) was 4.35 µM (≈ 2.04 µg/mL). The bioavailability (in vivo; F% (bioavailability)) was 20%, the C0 (in vivo; iv, 5 mg/kg) was 7410 ng/mL and the Tmax (in vivo; iv, 5 mg/kg) was 0.25 h. The Cmax (in vivo; iv, 5 mg/kg) was 7820 ng/mL, the MRT inf (in vivo; iv, 5 mg/kg) was 4.02 h and the half-life (in vivo; iv, 5 mg/kg) was 3.57 h. For the same molecule, the Tmax (in vivo; po, 10 mg/kg) was 2 h, the Cmax (in vivo; po, 10 mg/kg) was 1500 ng/mL and the MRT inf (in vivo; po, 10 mg/kg) was 14 h. The half-life (in vivo; po, 10 mg/kg) was 11.3 h.
